Active and inactive are the calls of the source. No cut-off for these calls is given here.
Columns and labels:
[1] = tested on: Mus musculus; assay: Anticonvulsant activity in maximal electroshock induced seizure mouse model assessed as suppression in hindlimb tonic extension at 300 mg/kg, ip measured at 4 hrs post dose; format: functional, organism-based
[2] = tested on: Mus musculus; assay: Neurotoxicity in mouse assessed as induction of motor impairment at 100 mg/kg, ip measured at 0.5 hrs post dose by rotarod method; format: toxicity, organism-based; conditions: in vivo
[3] = tested on: Mus musculus; assay: Anticonvulsant activity in 6-Hz induced seizure mouse model assessed as restoration of normal activity within 10 secs from stimulation at 100 mg/kg, ip at 44 mA measured at 0.5 hrs post dose; format: functional, organism-based
[4] = tested on: Rattus norvegicus; assay: Neurotoxicity in Sprague-Dawley rat assessed as behavioral change at 50 mg/kg, ip measured at […] post dose; format: toxicity, organism-based; conditions: in vivo
[5] = tested on: Rattus norvegicus; assay: Neurotoxicity in Sprague-Dawley rat assessed as behavioral change at 50 mg/kg, ip measured at 0.5 hrs post dose; format: toxicity, organism-based; conditions: in vivo
[6] = tested on: Rattus norvegicus; assay: Neurotoxicity in Sprague-Dawley rat assessed as behavioral change at 50 mg/kg, ip measured at 1 hr post dose; format: toxicity, organism-based; conditions: in vivo
[7] = tested on: Rattus norvegicus; assay: Neurotoxicity in Sprague-Dawley rat assessed as behavioral change at 50 mg/kg, ip measured at 2 hrs post dose; format: toxicity, organism-based; conditions: in vivo
[8] = tested on: Rattus norvegicus; assay: Neurotoxicity in Sprague-Dawley rat assessed as behavioral change at 50 mg/kg, ip measured at 4 hrs post dose; format: toxicity, organism-based; conditions: in vivo
[9] = tested on: Rattus norvegicus; assay: Neurotoxicity in po dosed Sprague-Dawley rat assessed as behavioral change by measuring time to peak effect; format: toxicity, organism-based; conditions: in vivo
[10] = biological target: Galanin receptor type 2 (Homo sapiens) (UniProt O43603); assay: Displacement of [125I]galanin from human recombinant GAL2 receptor expressed in CHO cells at 100 uM measured after 120 mins by scintillation counting method relative to control; format: cell-based
[11] = biological target: Histamine H2 receptor (Homo sapiens) (UniProt P25021); assay: Displacement of [125I]APT from human recombinant H2 receptor expressed in CHO cells at 100 uM measured after 120 mins by scintillation counting method relative to control; format: cell-based
[12] = species on record: Rattus norvegicus; assay: Displacement of [3H]a,b-MeATP from rat urinary bladder P2X receptor at 100 uM measured after 120 mins by scintillation counting method relative to control
[13] = biological target: Glucocorticoid receptor (Homo sapiens) (UniProt P04150); assay: Displacement of [3H]dexamethasone from GR receptor in human IM9 cells at 100 uM relative to control; format: cell-based; conditions: IM-9
[14] = tested on: AtT20; assay: Displacement of [125I]Tyr11-somatostatin-14 from Sst receptor in mouse AtT-20 cells at 100 uM measured after 60 mins by scintillation counting method relative to control; format: cell-based
[15] = biological target: Vasopressin V1a receptor (Homo sapiens) (UniProt P37288); assay: Displacement of [3H]AVP from human recombinant V1a receptor expressed in CHO cells at 100 uM measured after 60 mins by scintillation counting method relative to control; format: cell-based
[16] = tested on: Mus musculus; assay: Neurotoxicity in mouse assessed as induction of motor impairment at 300 mg/kg, ip measured at 0.5 hrs post dose by rotarod method; format: toxicity, organism-based; conditions: in vivo
[17] = tested on: Mus musculus; assay: Neurotoxicity in mouse assessed as induction of motor impairment at 300 mg/kg, ip measured at 4 hrs post dose by rotarod method; format: toxicity, organism-based; conditions: in vivo
[18] = tested on: Rattus norvegicus; assay: Anticonvulsant activity in maximal electroshock induced seizure Sprague-Dawley rat model assessed as suppression in hindlimb tonic extension at 30 mg/kg, po measured at 0.5 hrs post dose; format: functional, organism-based
[19] = tested on: Mus musculus; assay: Anticonvulsant activity in po dosed maximal electroshock induced seizure mouse model assessed as suppression in hindlimb tonic extension by measuring time to peak effect; format: functional
[20] = tested on: Mus musculus; assay: Anticonvulsant activity in po dosed pentylenetetrazole induced seizure mouse model assessed as no observable episode of clonic convulsion of at least 5 secs by measuring time to peak effect; format: functional
[21] = tested on: Mus musculus; assay: Anticonvulsant activity in po dosed maximal electroshock induced seizure mouse model assessed as suppression in hindlimb tonic extension; format: functional
[22] = tested on: Mus musculus; assay: Anticonvulsant activity in po dosed pentylenetetrazole induced seizure mouse model assessed as no observable episode of clonic convulsion of at least 5 secs; format: functional
[23] = tested on: Mus musculus; assay: Anticonvulsant activity in po dosed 6-Hz induced seizure mouse model assessed as restoration of normal activity within 10 secs from stimulation at 44 mA; format: functional
[24] = Protection index, ratio of TD50 for neurotoxicity in po dosed mouse to ED50 for po dosed maximal electroshock induced seizure mouse model; format: toxicity, organism-based; conditions: in vivo, read-out: Ratio TD50/ED50
[25] = Protection index, ratio of TD50 for neurotoxicity in po dosed mouse to ED50 for po dosed pentylenetetrazole induced seizure mouse model; format: toxicity, organism-based; conditions: in vivo, read-out: Ratio TD50/ED50
[26] = Protection index, ratio of TD50 for neurotoxicity in po dosed mouse to ED50 for po dosed 6-Hz induced seizure mouse model at 44 mA; format: toxicity, organism-based; conditions: in vivo, read-out: Ratio TD50/ED50
[27] = Neurotoxicity in po dosed mouse; format: toxicity, organism-based; conditions: in vivo
[28] = biological target: Type-1 angiotensin II receptor (Homo sapiens) (UniProt P30556); assay: Displacement of [125I][Sar1,Ile8]-AT2 from human recombinant AT1 receptor expressed in HEK293 cells at 100 uM measured after 120 mins by scintillation counting method relative to control; format: cell-based
[29] = species on record: Rattus norvegicus; assay: Displacement of [125I][Tyr4]bombesin from rat cerebral cortex BB receptor at 100 uM measured after 60 mins by scintillation counting method relative to control
[30] = biological target: B2 bradykinin receptor (Homo sapiens) (UniProt P30411); assay: Displacement of [3H]bradykinin from human recombinant bradykinin B2 receptor expressed in CHO cells at 100 uM measured after 60 mins by scintillation counting method relative to control; format: cell-based
[31] = biological target: Calcitonin gene-related peptide type 1 receptor (Homo sapiens) (UniProt Q16602); assay: Displacement of [125I]hCGRPa from human recombinant CGRP receptor expressed in CHO cells at 100 uM measured after 90 mins by scintillation counting method relative to control; format: cell-based
[32] = biological target: Histamine H1 receptor (Homo sapiens) (UniProt P35367); assay: Displacement of [3H]pyrilamine from human recombinant H1 receptor expressed in HEK293 cells at 100 uM measured after 60 mins by scintillation counting method relative to control; format: cell-based
[33] = biological target: Muscarinic acetylcholine receptor M2 (Homo sapiens) (UniProt P08172); assay: Displacement of [3H]AF-DX384 from human recombinant M2 receptor expressed in CHO cells at 100 uM measured after 60 mins by scintillation counting method relative to control; format: cell-based
[34] = species on record: Rattus norvegicus; assay: Displacement of [3H]D888 from rat cerebral cortex calcium channel L type verapamil binding site at 100 uM measured after 120 mins by scintillation counting method relative to control
[35] = species on record: Rattus norvegicus; assay: Displacement of [125I]alpha-dendrotoxin from rat cerebral cortex Kv channel at 100 uM measured after 60 mins by scintillation counting method relative to control
[36] = tested on: Rattus norvegicus; assay: Neurotoxicity in Sprague-Dawley rat assessed as behavioral change at 30 mg/kg, ip measured at 1 hr post dose; format: toxicity, organism-based; conditions: in vivo
[37] = tested on: Rattus norvegicus; assay: Anticonvulsant activity in maximal electroshock induced seizure Sprague-Dawley rat model assessed as suppression in hindlimb tonic extension at 30 mg/kg, ip measured at 1 hr post dose; format: functional, organism-based
[38] = biological target: Type-2 angiotensin II receptor (Homo sapiens) (UniProt P50052); assay: Displacement of [125I]CGP 42112A from human recombinant AT2 receptor expressed in HEK293 cells at 100 uM measured after 4 hrs by scintillation counting method relative to control; format: cell-based
Sequence of Type-2 angiotensin II receptor (Homo sapiens) (P50052 whole entry): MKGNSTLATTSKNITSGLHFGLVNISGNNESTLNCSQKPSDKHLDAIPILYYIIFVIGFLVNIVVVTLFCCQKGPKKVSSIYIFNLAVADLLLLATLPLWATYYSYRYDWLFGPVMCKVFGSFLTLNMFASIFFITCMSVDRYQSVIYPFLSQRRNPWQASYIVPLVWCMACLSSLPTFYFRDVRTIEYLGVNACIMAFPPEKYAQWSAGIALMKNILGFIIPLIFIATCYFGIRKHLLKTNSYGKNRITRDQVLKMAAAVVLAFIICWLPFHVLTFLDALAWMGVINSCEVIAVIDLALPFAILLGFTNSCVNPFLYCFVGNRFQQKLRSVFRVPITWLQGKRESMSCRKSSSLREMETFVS

Sequence of Calcitonin gene-related peptide type 1 receptor (Homo sapiens) (Q16602 whole entry): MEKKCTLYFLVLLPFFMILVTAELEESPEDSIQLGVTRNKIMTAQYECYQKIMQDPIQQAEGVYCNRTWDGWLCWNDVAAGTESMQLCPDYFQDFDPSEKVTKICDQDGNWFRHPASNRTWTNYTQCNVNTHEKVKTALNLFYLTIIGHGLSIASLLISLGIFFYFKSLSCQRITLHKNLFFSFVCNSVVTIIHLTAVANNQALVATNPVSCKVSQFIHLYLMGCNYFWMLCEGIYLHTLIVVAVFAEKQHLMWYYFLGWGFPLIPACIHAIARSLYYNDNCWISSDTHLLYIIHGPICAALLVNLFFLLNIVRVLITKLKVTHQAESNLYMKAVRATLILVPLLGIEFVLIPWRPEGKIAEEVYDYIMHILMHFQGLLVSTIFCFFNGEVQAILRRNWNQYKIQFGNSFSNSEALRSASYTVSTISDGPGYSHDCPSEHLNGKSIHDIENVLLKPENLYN
Sequence of Glucocorticoid receptor (Homo sapiens) (P04150 whole entry): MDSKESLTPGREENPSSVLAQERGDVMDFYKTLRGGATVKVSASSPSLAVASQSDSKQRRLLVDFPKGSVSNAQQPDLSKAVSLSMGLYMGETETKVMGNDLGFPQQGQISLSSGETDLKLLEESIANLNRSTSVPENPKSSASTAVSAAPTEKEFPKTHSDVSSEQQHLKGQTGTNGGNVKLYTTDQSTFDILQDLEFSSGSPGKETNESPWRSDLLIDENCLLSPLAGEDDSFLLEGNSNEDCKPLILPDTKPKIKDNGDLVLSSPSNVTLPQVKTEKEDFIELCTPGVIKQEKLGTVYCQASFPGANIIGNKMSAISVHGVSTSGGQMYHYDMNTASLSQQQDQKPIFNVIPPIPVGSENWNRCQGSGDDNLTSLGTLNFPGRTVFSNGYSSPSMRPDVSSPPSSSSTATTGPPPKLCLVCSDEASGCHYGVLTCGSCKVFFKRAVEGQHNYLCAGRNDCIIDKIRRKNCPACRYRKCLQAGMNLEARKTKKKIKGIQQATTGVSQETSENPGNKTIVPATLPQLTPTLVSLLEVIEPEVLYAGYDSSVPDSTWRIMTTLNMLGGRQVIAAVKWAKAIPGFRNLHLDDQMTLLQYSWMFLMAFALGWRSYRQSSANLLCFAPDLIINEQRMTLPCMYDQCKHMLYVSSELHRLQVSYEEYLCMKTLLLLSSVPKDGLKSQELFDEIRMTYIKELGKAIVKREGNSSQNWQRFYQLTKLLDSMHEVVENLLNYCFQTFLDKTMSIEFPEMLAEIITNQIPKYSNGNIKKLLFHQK
Sequence of B2 bradykinin receptor (Homo sapiens) (P30411 whole entry): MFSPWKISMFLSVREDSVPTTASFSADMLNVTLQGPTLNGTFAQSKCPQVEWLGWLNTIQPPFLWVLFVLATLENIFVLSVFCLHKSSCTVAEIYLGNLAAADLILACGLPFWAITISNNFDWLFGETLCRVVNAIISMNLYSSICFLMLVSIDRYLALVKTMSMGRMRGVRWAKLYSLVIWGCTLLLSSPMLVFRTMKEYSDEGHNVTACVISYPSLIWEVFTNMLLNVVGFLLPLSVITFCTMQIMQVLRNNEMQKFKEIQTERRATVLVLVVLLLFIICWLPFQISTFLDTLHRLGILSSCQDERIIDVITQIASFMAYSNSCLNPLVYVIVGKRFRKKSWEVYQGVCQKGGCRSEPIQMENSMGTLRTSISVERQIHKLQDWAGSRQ
Sequence of Vasopressin V1a receptor (Homo sapiens) (P37288 whole entry, looked up): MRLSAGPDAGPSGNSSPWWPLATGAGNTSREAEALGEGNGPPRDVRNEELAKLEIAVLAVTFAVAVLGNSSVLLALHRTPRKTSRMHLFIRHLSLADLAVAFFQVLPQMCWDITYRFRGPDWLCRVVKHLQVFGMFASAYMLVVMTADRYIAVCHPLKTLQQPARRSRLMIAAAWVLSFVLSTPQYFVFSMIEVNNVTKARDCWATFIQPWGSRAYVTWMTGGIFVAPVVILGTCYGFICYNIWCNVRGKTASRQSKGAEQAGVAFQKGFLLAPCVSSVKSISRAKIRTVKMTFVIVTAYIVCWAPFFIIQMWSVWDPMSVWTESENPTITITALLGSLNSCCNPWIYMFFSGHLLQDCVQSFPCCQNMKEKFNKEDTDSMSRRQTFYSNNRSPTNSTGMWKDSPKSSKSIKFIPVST
Sequence of Type-1 angiotensin II receptor (Homo sapiens) (P30556 whole entry): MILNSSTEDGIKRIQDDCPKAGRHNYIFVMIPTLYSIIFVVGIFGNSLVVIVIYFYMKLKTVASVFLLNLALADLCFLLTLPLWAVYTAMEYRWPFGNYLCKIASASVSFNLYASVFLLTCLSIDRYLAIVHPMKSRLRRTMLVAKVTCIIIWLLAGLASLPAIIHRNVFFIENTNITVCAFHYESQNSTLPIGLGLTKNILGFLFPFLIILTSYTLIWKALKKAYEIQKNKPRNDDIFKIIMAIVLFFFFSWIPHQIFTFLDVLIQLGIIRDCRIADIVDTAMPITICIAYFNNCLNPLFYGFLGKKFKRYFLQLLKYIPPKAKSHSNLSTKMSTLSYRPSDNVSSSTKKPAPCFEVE
Sequence of Histamine H2 receptor (Homo sapiens) (P25021 whole entry): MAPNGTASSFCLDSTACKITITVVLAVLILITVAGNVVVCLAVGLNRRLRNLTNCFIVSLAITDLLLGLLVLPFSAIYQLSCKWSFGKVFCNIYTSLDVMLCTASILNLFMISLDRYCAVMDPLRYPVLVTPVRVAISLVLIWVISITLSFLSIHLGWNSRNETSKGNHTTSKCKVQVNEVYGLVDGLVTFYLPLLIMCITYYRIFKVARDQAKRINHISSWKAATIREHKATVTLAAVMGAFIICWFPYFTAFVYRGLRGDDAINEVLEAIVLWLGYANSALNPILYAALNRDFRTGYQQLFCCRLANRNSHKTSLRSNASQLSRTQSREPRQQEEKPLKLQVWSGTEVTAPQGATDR
Sequence of Galanin receptor type 2 (Homo sapiens) (O43603 whole entry): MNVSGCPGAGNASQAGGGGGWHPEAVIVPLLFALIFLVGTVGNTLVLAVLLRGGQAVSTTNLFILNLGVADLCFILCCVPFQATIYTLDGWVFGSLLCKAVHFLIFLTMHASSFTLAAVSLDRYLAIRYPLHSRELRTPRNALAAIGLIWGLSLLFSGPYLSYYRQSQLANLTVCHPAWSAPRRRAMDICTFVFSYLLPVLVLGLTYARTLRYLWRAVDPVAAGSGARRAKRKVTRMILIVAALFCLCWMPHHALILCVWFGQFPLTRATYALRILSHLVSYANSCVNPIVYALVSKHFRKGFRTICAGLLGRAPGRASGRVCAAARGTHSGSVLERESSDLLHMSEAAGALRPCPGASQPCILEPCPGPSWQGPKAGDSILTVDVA
Sequence of Muscarinic acetylcholine receptor M2 (Homo sapiens) (P08172 whole entry): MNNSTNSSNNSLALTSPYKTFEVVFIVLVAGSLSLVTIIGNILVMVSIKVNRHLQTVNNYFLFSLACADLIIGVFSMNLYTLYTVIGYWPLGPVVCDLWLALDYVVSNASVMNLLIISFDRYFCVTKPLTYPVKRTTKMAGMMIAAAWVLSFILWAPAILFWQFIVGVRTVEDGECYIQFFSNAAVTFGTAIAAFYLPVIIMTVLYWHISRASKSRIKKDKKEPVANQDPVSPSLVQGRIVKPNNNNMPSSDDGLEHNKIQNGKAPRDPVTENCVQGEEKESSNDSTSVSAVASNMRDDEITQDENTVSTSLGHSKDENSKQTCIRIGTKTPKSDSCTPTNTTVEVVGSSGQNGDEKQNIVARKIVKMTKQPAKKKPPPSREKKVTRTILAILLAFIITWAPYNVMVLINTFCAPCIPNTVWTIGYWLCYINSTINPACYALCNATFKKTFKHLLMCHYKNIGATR
Sequence of Histamine H1 receptor (Homo sapiens) (P35367 whole entry): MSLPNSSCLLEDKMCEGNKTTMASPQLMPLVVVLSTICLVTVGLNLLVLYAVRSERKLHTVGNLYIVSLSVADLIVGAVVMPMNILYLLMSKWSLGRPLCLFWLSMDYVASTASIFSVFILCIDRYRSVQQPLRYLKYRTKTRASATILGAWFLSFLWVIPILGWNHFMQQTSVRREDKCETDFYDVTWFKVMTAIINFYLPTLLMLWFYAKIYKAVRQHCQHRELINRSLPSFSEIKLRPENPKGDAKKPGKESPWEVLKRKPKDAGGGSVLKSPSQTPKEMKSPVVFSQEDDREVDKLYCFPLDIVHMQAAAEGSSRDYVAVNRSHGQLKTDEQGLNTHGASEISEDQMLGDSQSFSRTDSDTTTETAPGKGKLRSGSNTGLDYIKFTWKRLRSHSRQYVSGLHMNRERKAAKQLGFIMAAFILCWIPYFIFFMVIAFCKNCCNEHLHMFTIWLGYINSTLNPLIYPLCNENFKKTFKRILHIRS

For `CCC(CO)NC(=O)/C=C/c1ccc(Cl)cc1` (stereo unspecified), the Activity [1] was “Active”, the Activity [2] was “Non-Toxic” and the Activity [3] was “Active”. For the same compound, the Activity [4] was “Non-Toxic”, the Activity [5] was “Non-Toxic” and the Activity [6] was “Non-Toxic”. The Activity [7] was “Non-Toxic”, the Activity [8] was “Non-Toxic” and the Time [9] was 4 h. It also gave an inhibition [10] of -7.3%, an inhibition [11] of -5.2% and an inhibition [12] of -8.2%. For the same compound, the inhibition [13] was -9.9%, the inhibition [14] was -10% and the inhibition [15] was 10.6%.
With `CC(O)CNC(=O)/C=C/c1ccc(Cl)cc1` (stereo unspecified) the Activity [1] was “Active”, the Activity [16] was “Toxic” and the Activity [17] was “Toxic”. The Activity [3] was “Active”, the Activity [18] was “Active” and the Activity [4] was “Non-Toxic”. The Activity [5] was “Non-Toxic”, the Activity [6] was “Non-Toxic” and the Activity [7] was “Non-Toxic”. For the same compound, the Activity [8] was “Non-Toxic”, the Time [19] was 1 h and the Time [20] was 1 h. The ED50 [21] was 92.5 mg/kg, the ED50 [22] was 132 mg/kg and the ED50 [23] was 120 mg/kg. It also gave a selectivity ratio [24] greater than 5.41, a selectivity ratio [25] greater than 3.79 and a selectivity ratio [26] greater than 4.17. The TD50 [27] was greater than 500 mg/kg, the inhibition [28] was -9.6% and the inhibition [29] was -0.1%. It also gave an inhibition [30] of -1%, an inhibition [31] of -6.9% and an inhibition [32] of -10%. For the same compound, the inhibition [11] was -6.4%, the inhibition [33] was -2.8% and the inhibition [13] was -7%. The inhibition [15] was 9%, the inhibition [34] was -2.5% and the inhibition [35] was -9.6%.
With `Cc1ccccc1/C=C/C(=O)N[C@@H](C)CO` the Activity [16] was “Toxic”, the Activity [17] was “Non-Toxic” and the Activity [36] was “Non-Toxic”. For the same compound, the Activity [37] was “Active”, the Time [19] was 0.5 h and the Time [20] was 0.5 h. The ED50 [21] was 43.3 mg/kg, the ED50 [22] was 132 mg/kg and the ED50 [23] was 74.1 mg/kg. It also gave a selectivity ratio [24] of 6.51, a selectivity ratio [25] of 2.15 and a selectivity ratio [26] of 3.81. The TD50 [27] was 282 mg/kg, the inhibition [28] was -0.8% and the inhibition [38] was 2.6%. For the same compound, the inhibition [29] was -3.4%, the inhibition [30] was -8.3% and the inhibition [31] was -7.6%. The inhibition [14] was -4.6%, the inhibition [34] was -0.4% and the inhibition [35] was -8.7%.
